The values below come from patent US10940139B2, “Compounds that interact with the Ras superfamily for the treatment of cancers, inflammatory diseases, rasopathies, and fibrotic disease” (Shy Therapeutics LLC, priority 2017, dated 2021).

Assay [1] deals with TNFα production in RAW 264.7 macrophage cell line. Description: Mouse TNF alpha quantification assay (LPS-stimulated macrophages, ELISA). The format is cell-based. As to conditions: RAW264.7, RAW 264.7 murine leukemia virus transformed macrophage cell lines, LPS stimulation, read-out: TNF-α % Inhibition at 30 μM.
Assay [2] has as its system IL6 production in RAW 264.7 macrophage cell line. Description: Mouse IL6 quantification assay (LPS-stimulated macrophages, ELISA). The assay is classed as cell-based. The settings on record: RAW264.7, RAW 264.7 murine leukemia virus transformed macrophage cell lines, LPS stimulation, read-out: IL-6 % Inhibition at 30 μM.

For `O=C(c1cc2nc(-c3ccccn3)nc(O)c2s1)N1CCOC(c2ccccc2)C1` (stereo not shown) [drawing 2235], the inhibition at 30 µM in assay [1] and in assay [2] was 1 to 25% throughout.

With `Oc1nc(-c2ccccn2)nc2c1ncn2-c1ccccc1` [drawing 2123], the inhibition at 30 µM in assay [1] was 0%; in assay [2], 1 to 25%.

`COc1cnc(-c2ccccn2)nc1O` [drawing 2307]: the inhibition at 30 µM was in the range of 1 to 25% in assay [1] and 76 to 100% in assay [2].

`Cc1cnccc1-c1csc2c(O)nc(-c3ccccn3)nc12` [drawing 2280]: the inhibition at 30 µM in assay [1] lay within 26 to 50%; in assay [2] it was 76 to 100%.

Regarding `O=c1[nH]c(-c2ccccn2)nc2c([C@@H]3O[C@H](CO)[C@@H](O)[C@H]3O)csc12` [drawing 2354], the inhibition at 30 µM was in the range of 26 to 50% in assay [1] and 1 to 25% in assay [2].

For the compound `N#Cc1ccc(CC(=O)Nc2ccnc(-c3ccccn3)n2)cc1` [drawing 2125], the inhibition at 30 µM in assay [1] and in assay [2] was 1 to 25% in each case.

`O=C(c1csc2c(O)nc(-c3ccccn3)nc12)N1CCC(N2CCOCC2)CC1` [drawing 2105]: the inhibition at 30 µM in assay [1] is 0%; in assay [2], 1 to 25%.

For the compound `COCCNc1nc(-c2nccn2C)nc2sc(-c3ccccc3)c(-c3ccccc3Cl)c12` [drawing 2407], the inhibition at 30 µM was in the range of 1 to 25% in assay [1] and 51 to 75% in assay [2].

As for `O=C1CCN(c2nc(-c3ccccn3)nc3scc(-c4ccccc4)c23)CC1` [drawing 2163], the inhibition at 30 µM in assay [1] and in assay [2] was 1 to 25% throughout.

With `Nc1nc(O)c2scc(C(=O)NCCc3cccnc3)c2n1` [drawing 2098], the inhibition at 30 µM in assay [1] and in assay [2] was 1 to 25% throughout.

As to `N#Cc1ccc2c(c1)CCCC2C(=O)Nc1ccnc(-c2ccccn2)n1` (stereo not shown) [drawing 2248], the inhibition at 30 µM in assay [1] was 0%; in assay [2], 1 to 25%.

Regarding `Cn1cnc(-c2nc(O)c3c(-c4ccccc4)c(-c4ccc(CNC(=O)OC(C)(C)C)cc4)sc3n2)c1` [drawing 2364], the inhibition at 30 µM was 0% in assay [1] and 1 to 25% in assay [2].

As to `COc1cnc(CNC(=O)c2cc3nc(-c4ccccn4)nc(O)c3s2)[nH]c1=O` [drawing 2348], the inhibition at 30 µM is 1 to 25% in assay [1] and 0% in assay [2].

Turning to `Oc1nc(-c2ccccn2)nc2cc(-c3ccncc3)sc12` [drawing 2388], the values for the inhibition at 30 µM in assay [1] and in assay [2] were 1 to 25% and 26 to 50%, respectively.

In the case of `Oc1nc(-c2ccccn2)nc2c(-c3ccccc3)c(-c3ccncc3)sc12` [drawing 2375], the results for the inhibition at 30 µM in assay [1] and in assay [2] were 0% and 1 to 25%, respectively.

Take `O=C(c1csc2c(O)nc(-c3ccccn3)nc12)N1CCC(c2cccc(O)c2)C1` (stereo not shown) [drawing 2233]: the inhibition at 30 µM in assay [1] was 26 to 50%; in assay [2] it was 76 to 100%.

Consider `O=C(CNc1nc(-c2ccccn2)nc2scc(-c3ccccc3)c12)NC1CC1` [drawing 2149], for which the inhibition at 30 µM in assay [1] and in assay [2] was 26 to 50% each time.

For `CC1(N)CCN(C(=O)c2csc3c(O)nc(-c4ccccn4)nc23)CC1` [drawing 2111], the results for the inhibition at 30 µM in assay [1] and in assay [2] were 0% and 1 to 25%, respectively.

On to `O=C(Nc1nc(-c2ccccn2)cs1)c1ccc2[nH]cnc2c1` [drawing 2012], for which the results for the inhibition at 30 µM in assay [1] and in assay [2] were 1 to 25% and 26 to 50%, respectively.

With `O=c1nc(-c2ccccn2)[nH]c2sc(-c3ccccc3)cc12` [drawing 2028], the inhibition at 30 µM was in the range of 76 to 100% in assay [1] and 51 to 75% in assay [2].

For `Oc1nc(-c2ccccn2)nc2c(-c3cnc4ccccc4c3)csc12` [drawing 2300], the results for the inhibition at 30 µM in assay [1] and in assay [2] were 1 to 25% and 76 to 100%, respectively.

With `Cc1sc2c(N)nc(-c3ccccn3)nc2c1-c1ccccc1` [drawing 2230], the inhibition at 30 µM in assay [1] lay in the range of 1 to 25%; in assay [2], 51 to 75%.

As for `COCC(C)Nc1nc(-c2ccccn2)nc2sc(-c3ccncc3)c(-c3ccccc3)c12` (stereo not shown) [drawing 2368], the inhibition at 30 µM in assay [1] was 26 to 50%; in assay [2], 0%.

In the case of `O=C(NCCc1ccc(O)c(O)c1)c1csc2nc(-c3ccccn3)nc(N3CCOCC3)c12` [drawing 2204], the values for the inhibition at 30 µM in assay [1] and in assay [2] were 0% and 1 to 25%, respectively.

As to `CN(CCc1ccncc1)C(=O)c1csc2c(O)nc(-c3ccccn3)nc12` [drawing 2114], the results for the inhibition at 30 µM in assay [1] and in assay [2] were 0% and 51 to 75%, respectively.

For `O=C(CCc1nn[nH]n1)Nc1nc(-c2ccccn2)nc2sccc12` [drawing 2282], the inhibition at 30 µM in assay [1] was 0%; in assay [2], 1 to 25%.

Consider `OCC1(c2ccc(-c3csc4c(O)nc(-c5ccccn5)nc34)cc2)CC1` [drawing 2278], for which the inhibition at 30 µM in assay [1] lay in the range of 1 to 25%; in assay [2], 76 to 100%.

As for `Cc1c(C(=O)Nc2nnc(-c3ccccn3)[nH]2)oc2c1C(=O)CCC2` [drawing 1946], the inhibition at 30 µM in assay [1] is 0%; in assay [2], 1 to 25%.

In the case of `O=C(Nc1nnc(-c2ccccn2)[nH]1)c1ccc(=O)[nH]n1` [drawing 2003], the inhibition at 30 µM was 1 to 25% in assay [1] and 26 to 50% in assay [2].

For the compound `O=C(Nc1nnc(-c2ccccn2)[nH]1)C1CCCC(C(F)(F)F)C1` (stereo not shown) [drawing 1972], the inhibition at 30 µM is 0% in assay [1] and 1 to 25% in assay [2].

For the compound `Cc1c(-c2csc3c(O)nc(-c4ccccn4)nc23)cnn1C` [drawing 2327], the inhibition at 30 µM in assay [1] lay in the range of 51 to 75%; in assay [2], 76 to 100%.

Regarding `CC(C)(C(=O)Nc1ccnc(-c2ccccn2)n1)c1ccc(C#N)cc1` [drawing 2177], the inhibition at 30 µM is 0% in assay [1] and 1 to 25% in assay [2].

`CS(=O)(=O)CCCC(=O)N1CCCc2c(O)nc(-c3ccccn3)nc21` [drawing 2082]: the inhibition at 30 µM in assay [1] is 0%; in assay [2] it was 26 to 50%.

As to `CC(Oc1ccccc1C#N)C(=O)Nc1nnc(-c2ccccn2)[nH]1` (stereo not shown) [drawing 1966], the inhibition at 30 µM is 1 to 25% in assay [1] and 0% in assay [2].

`O=C(c1csc2c(O)nc(-c3ccccn3)nc12)N1CCOC(c2cccc(F)c2)C1` (stereo not shown) [drawing 2170]: the inhibition at 30 µM in assay [1] was 1 to 25%; in assay [2] it was 26 to 50%.

On to `Cc1sc2c(O)nc(-c3nccn3C)nc2c1-c1ccccc1` [drawing 2421], for which the inhibition at 30 µM in assay [1] fell in the range of 26 to 50%; in assay [2] it was 76 to 100%.

`Cn1ccnc1-c1nc(O)c2scc(-c3ccccc3)c2n1` [drawing 2441]: the inhibition at 30 µM in assay [1] was 51 to 75%; in assay [2] it was 76 to 100%.

For `COCCNc1nc(-c2nccn2C)nc2sc(C)c(-c3ccccc3)c12` [drawing 2411], the inhibition at 30 µM in assay [1] lay in the range of 26 to 50%; in assay [2] it was 1 to 25%.

Regarding `CC(OCC(F)(F)F)C(=O)Nc1nnc(-c2ccccn2)[nH]1` (stereo not shown) [drawing 1948], the inhibition at 30 µM is 1 to 25% in assay [1] and 0% in assay [2].

Take `COc1nc(-c2ccccn2)nc2c(C3CCC3)csc12` [drawing 2318]: the inhibition at 30 µM in assay [1] and in assay [2] was 1 to 25% throughout.

Turning to `c1ccc(-c2csc3nc(-c4ccccn4)nc(N4CCN(Cc5cccnc5)CC4)c23)cc1` [drawing 2139], the inhibition at 30 µM in assay [1] lay within 51 to 75%; in assay [2] it was 76 to 100%.

Turning to `O=C(COCc1cccnc1)Nc1nc(-c2ccccn2)nc2sccc12` [drawing 2222], the inhibition at 30 µM in assay [1] fell in the range of 1 to 25%; in assay [2], 51 to 75%.

For `Oc1nc(-c2ccccn2)nc2c(-c3cccc(C(F)(F)F)c3)csc12` [drawing 2265], the inhibition at 30 µM in assay [1] and in assay [2] was 76 to 100% throughout.

For `O=C(Nc1nc(-c2ccccn2)cs1)C1COc2ccccc2O1` (stereo not shown) [drawing 2007], the figures for the inhibition at 30 µM in assay [1] and in assay [2] were 1 to 25% and 0%, respectively.

In the case of `COCCNc1nc(-c2cn(C)cn2)nc2sc(-c3ccncc3)c(-c3ccccc3)c12` [drawing 2357], the figures for the inhibition at 30 µM in assay [1] and in assay [2] were 1 to 25% and 51 to 75%, respectively.

In the case of `Cc1c(C(=O)O)sc2c(O)nc(-c3ccccn3)nc12` [drawing 2313], the inhibition at 30 µM in assay [1] and in assay [2] was 76 to 100% in each case.

Regarding `c1ccc(-c2csc3nc(-c4ccccn4)nc(N4CCN(CC5CCCO5)CC4)c23)cc1` (stereo not shown) [drawing 2140], the inhibition at 30 µM in assay [1] lay within 26 to 50%; in assay [2] it was 51 to 75%.

As for `OCCOCCNc1nc(-c2ccccn2)nc2scc(-c3ccccc3)c12` [drawing 2044], the inhibition at 30 µM in assay [1] and in assay [2] was 1 to 25% throughout.

In the case of `O=C(Nc1nc(-c2ccccn2)cs1)c1ccc(F)cc1` [drawing 2020], the inhibition at 30 µM in assay [1] and in assay [2] was 26 to 50% each time.

`Oc1nc(-c2ccccn2)nc2c(-c3ccc4c(c3)CCCO4)csc12` [drawing 2294]: the inhibition at 30 µM in assay [1] is 0%; in assay [2], 1 to 25%.

Turning to `Nc1nc(-c2ccccn2)nc2c(-c3ccccc3Cl)csc12` [drawing 2228], the values for the inhibition at 30 µM in assay [1] and in assay [2] were 1 to 25% and 76 to 100%, respectively.

In the case of `Oc1nc(-c2ccccn2)nc2c(-c3cc(Cl)cc(Cl)c3)csc12` [drawing 2241], the inhibition at 30 µM in assay [1] was 1 to 25%; in assay [2], 0%.

`O=S(=O)(Oc1cc(C(F)(F)F)cc(C(F)(F)F)c1)N1CCc2ccccc2C1` [drawing 2062]: the figures for the inhibition at 30 µM in assay [1] and in assay [2] were 0% and 51 to 75%, respectively.

For the compound `COCCNc1nc(-c2nccn2C)nc2sc(-c3ccccc3)c(-c3ccccn3)c12` [drawing 2449], the inhibition at 30 µM in assay [1] and in assay [2] was 76 to 100% in each case.

For the compound `O=C(c1cocn1)N1CCCc2c(O)nc(-c3ccccn3)nc21` [drawing 2081], the inhibition at 30 µM in assay [1] and in assay [2] was 1 to 25% in each case.

For `CC(CC(=O)N1CCOCC1)c1nc(-c2ccccn2)nc2scc(-c3ccccc3)c12` (stereo not shown), the inhibition at 30 µM in assay [1] and in assay [2] was 1 to 25% throughout.
